Calls of active or inactive are those of the source. The calls are words filed in the database; no cut-off is given here.
How the values were obtained:
[1] = target: Tyrosine-protein kinase Fyn (Homo sapiens) (UniProt P06241); test: Inhibition of GST-tagged human recombinant full length Fyn SH2 domain expressed in Escherichia coli […] binding to biotinylated phosphotyrosine-containing peptide by ELISA
[2] = target: Growth factor receptor-bound protein 2 (Homo sapiens) (UniProt P62993); test: Inhibition of GST-tagged human recombinant full length Grb2 SH2 domain expressed in Escherichia coli […] binding to biotinylated phosphotyrosine-containing peptide by ELISA
[3] = target: Adapter molecule crk (Homo sapiens) (UniProt P46108); test: Inhibition of GST-tagged human recombinant full length Crk SH2 domain expressed in Escherichia coli […] binding to biotinylated phosphotyrosine-containing peptide by ELISA
[4] = target: Tyrosine-protein kinase ABL1 (Homo sapiens) (UniProt P00519); test: Inhibition of GST-tagged human recombinant full length Abl SH2 domain expressed in Escherichia coli […] binding to biotinylated phosphotyrosine-containing peptide by ELISA
Tyrosine-protein kinase ABL1 (Homo sapiens), sequence (P00519 whole entry, the tested form may be a part): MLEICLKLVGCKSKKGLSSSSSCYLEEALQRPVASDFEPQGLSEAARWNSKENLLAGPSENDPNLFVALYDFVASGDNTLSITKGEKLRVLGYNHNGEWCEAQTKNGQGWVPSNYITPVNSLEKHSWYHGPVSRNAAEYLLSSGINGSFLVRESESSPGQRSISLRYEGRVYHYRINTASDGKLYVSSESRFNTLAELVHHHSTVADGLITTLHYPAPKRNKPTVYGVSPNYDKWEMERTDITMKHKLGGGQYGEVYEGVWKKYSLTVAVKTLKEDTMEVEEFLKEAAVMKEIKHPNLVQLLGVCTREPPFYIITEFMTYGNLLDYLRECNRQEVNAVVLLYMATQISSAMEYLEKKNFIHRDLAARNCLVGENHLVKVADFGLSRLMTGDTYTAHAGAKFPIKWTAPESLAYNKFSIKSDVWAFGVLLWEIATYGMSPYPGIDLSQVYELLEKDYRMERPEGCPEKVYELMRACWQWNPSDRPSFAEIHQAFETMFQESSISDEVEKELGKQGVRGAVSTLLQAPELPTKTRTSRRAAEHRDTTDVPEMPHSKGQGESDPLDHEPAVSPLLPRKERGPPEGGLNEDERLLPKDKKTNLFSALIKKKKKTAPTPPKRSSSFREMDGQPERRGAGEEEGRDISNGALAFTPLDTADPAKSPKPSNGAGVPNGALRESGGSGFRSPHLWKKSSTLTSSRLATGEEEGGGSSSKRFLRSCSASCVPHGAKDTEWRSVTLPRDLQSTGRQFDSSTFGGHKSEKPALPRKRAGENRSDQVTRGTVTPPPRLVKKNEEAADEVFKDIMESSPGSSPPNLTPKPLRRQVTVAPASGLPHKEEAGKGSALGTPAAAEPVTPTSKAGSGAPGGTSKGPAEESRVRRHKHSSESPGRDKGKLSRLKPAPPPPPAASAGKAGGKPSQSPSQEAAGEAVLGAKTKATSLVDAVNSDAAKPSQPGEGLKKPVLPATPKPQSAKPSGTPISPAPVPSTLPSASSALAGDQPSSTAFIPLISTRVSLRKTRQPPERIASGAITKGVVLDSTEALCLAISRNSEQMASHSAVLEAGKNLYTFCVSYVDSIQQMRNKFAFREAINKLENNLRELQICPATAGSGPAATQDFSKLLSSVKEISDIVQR

Tyrosine-protein kinase Fyn (Homo sapiens), sequence (P06241 2-537 limits assumed): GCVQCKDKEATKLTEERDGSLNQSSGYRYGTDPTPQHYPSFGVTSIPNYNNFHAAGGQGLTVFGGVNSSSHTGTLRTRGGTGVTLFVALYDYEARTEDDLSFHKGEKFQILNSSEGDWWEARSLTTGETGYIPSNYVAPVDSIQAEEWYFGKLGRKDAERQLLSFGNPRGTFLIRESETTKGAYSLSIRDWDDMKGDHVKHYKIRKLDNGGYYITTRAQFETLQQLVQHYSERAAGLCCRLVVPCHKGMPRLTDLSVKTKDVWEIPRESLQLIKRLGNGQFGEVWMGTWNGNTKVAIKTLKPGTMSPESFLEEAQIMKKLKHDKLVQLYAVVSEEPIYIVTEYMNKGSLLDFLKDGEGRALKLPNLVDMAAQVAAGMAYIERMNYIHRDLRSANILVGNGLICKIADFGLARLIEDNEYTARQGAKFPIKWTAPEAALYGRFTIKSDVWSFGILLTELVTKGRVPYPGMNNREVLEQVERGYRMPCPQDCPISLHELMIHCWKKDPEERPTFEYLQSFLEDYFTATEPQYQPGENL
Adapter molecule crk (Homo sapiens), sequence (P46108 whole entry, the tested form may be a part): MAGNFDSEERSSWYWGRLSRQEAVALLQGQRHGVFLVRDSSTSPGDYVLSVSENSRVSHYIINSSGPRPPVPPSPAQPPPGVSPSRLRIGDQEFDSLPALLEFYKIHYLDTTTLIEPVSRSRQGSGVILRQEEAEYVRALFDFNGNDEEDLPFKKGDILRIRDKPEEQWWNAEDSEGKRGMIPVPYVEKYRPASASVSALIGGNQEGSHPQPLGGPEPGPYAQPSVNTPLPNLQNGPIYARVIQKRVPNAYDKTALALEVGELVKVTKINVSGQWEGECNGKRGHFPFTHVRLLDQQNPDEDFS

Activity [1] | Activity [2] | Activity [3] | Activity [4] | SMILES
inactive | inactive | inactive | inactive | CCOCc1cc(O)c(O)c(Br)c1Br
inactive | inactive | inactive | inactive | COC1(Cc2ccc(O)cc2)CC=C(O)C1=O (configuration not stated)
inactive | inactive | inactive | inactive | OCc1ccc(O)cc1

From ChEMBL document CHEMBL1159305, “Vidalenolone, a novel phenolic metabolite from the tropical red alga Vidalia sp” (J Nat Prod, 2002)
